Legend:
[1] = test system: adult rat sciatic nerve fibroblasts (RSF); experiment: Stripe assay, RSF; format: cell-based; parameters: key: Bands that were completely inhibitory to cell adhesion, migration and/or invasion were evaluated as (−); those allowing limited cell adhesion, migration and/or invasion (+/−); those permissive to cell adhesion, migration and/or invasion as (+); details: for DS-PG Effect on Adhesion, Migration and Invasion: 2 days following plating
Protocol: Primary Cell Cultures. Primary cultures of rat meningeal fibroblasts (RMF) were obtained from P-3 rat pups. The tissue was removed from the animals and transferred to Leibovitz's L-15 with L-glutamine medium. The tissue was then cut into small pieces with a scalpel blade, enzymatically dissociated with 0.25% trypsin in Ca^2+/Mg^2+ free Hank's balanced salt solution (CMF-HBSS, Gibco Laboratories) for 20 minutes at 37° C., and mechanically triturated. The cells were rinsed with DMEM plus 10% FCS, concentrated by centrifugation and subsequently diluted in DMEM with 10% FCS for plating at 5.0×10^6 cells per 75 cm^2 flask. Adult rat sciatic nerve fibroblasts (RSF) were obtained by explantation of 1 mm sections of adult rat sciatic nerve.
(§1) The stripe assay was performed essentially as described by Snow et al. (1990, Exp. Neural. 309:111-130). Tissue culture Petri dishes (Falcon, 60 mm) were precoated with 0.5 ml of a mixture of 5 cm^2 section nitrocellulose (Schleicher & Schuell, Type BA 85) dissolved in 6 ml methanol, and air dried in a laminar flow hood. Cellulose filter paper (Whatman #1) was cut into 12×0.35 mm strips with a McIlwain tissue chopper (The Mickle Laboratory Engineering Co., LTD). A strip of filter paper was soaked in 20 μl of a solution of DS-PG or KS/CS-PG and LN at given concentration, blotted onto the nitrocellulose-coated dish for 30 sec. and removed. The test solution was allowed to air dry. This process was repeated several times creating clearly defined, equally spaced parallel bands of uniform width on the plates. A thin layer of 0.1 or 1 mg/ml LN was then spread evenly across the bands with a bent glass Pasteur pipet, and covered with culture medium (FIG. 1).
(§2) Plates were seeded with cell suspensions of 2.0×10^5 cells/ml or 4-10 DRG explants. The cultures were assessed for degree of adhesion, migration and/or invasion of the DS-PG or KS/CS-PG bands over a period of up to 7 days using a Leitz Fluovert microscope.
(§3) Bands that were completely inhibitory to cell adhesion, migration and/or invasion were evaluated as (−), those allowing limited cell adhesion, migration and/or invasion (+/−), and those permissive to cell adhesion, migration and/or invasion as (+). cell adhesion was defined as the initial interaction between the cell surface and the substratum which results in cell attachment and spreading. Cell migration was operationally defined as cell movement within the same substratum, and cell invasion was operationally defined as cell movement from one type of substratum to another type of substratum.

rat astrocytes (RAST) = experiment: Stripe assay, RAST; format: cell-based; parameters: key: Bands that were completely inhibitory to cell adhesion, migration and/or invasion were evaluated as (−); those allowing limited cell adhesion, migration and/or invasion (+/−); those permissive to cell adhesion, migration and/or invasion as (+); details: for DS-PG Effect on Adhesion, Migration and Invasion: 2 days following plating
Protocol: Rat astrocytes (RAST) cultures were prepared from P-1-3 rat brain cortices. The cortices were stripped of connective tissue and blood vessels, cut into small pieces and dissociated in 0.5% collagenase (Gibco Laboratories) for 20 min at 37° C., followed by further dissociation in 0.25% trypsin for 15 min, and 0.04 mg/ml DNAse (Sigma) and 0.52 mg/ml soy bean trypsin inhibitor for 5 min at 37° C. The cells were subsequently mechanically dissociated by trituration with a Pastuer pipette and plated at 1.5×10^7 cells in a poly-L-lysine (PLL, Sigma) coated 75 cm^2 flask. The flask was shaken 4 hrs following plating to remove less adherent non-astrocytic oligodendrocytes and neurons.
as §1, §2, §3

rat C6 glioma = experiment: Stripe assay, C6; format: cell-based; parameters: key to DS-PG Effect on Adhesion, Migration and Invasion / Effect of KS/CS-PG on Cell Migration: Bands that were completely inhibitory to cell adhesion, migration and/or invasion were evaluated as (−); those allowing limited cell adhesion, migration and/or invasion (+/−); those permissive to cell adhesion, migration and/or invasion as (+); details: for Effect of KS/CS-PG on Cell Migration / DS-PG Effect on Adhesion, Migration and Invasion: C6; for DS-PG Effect on Adhesion, Migration and Invasion: 2 days following plating
Protocol: Cell lines. Murine 3T3 fibroblast (NIH), rat C6 glioma (Paganetti et al., 1988, J. Cell Biol. 107:2281) and MCG-28 young immortalized mouse astrocyte (a murine neonatal astrocyte line immortalized with SV-40) were grown in medium composed of Dulbecco's modified Eagle medium (DMEM), 10% fetal calf serum (Gibco Laboratories), and penicillin G/streptomycin (100 units/ml, 100 μg/ml respectively, Gibco Laboratories). For the stripe assay, confluent plates were disaggregated with 0.05% trypsin, 0.53 mM EDTA (Gibco Laboratories) and seeded at 200,000 cells/ml (3 ml/plate). For the cell adhesion assays, confluent cultures were disaggregated with 0.03% EDTA and plated in a 96-well microtiter plate at 20,000-100,000 cells per well. PC12 cells, a pheochromocytoma cell line (Green L. A. & Tischler A. S., 1976, Proc. Natl. Acad. Sci. U.S.A. 73:2424), were grown in medium containing Roswell Park Memorial Institute (RPMI) medium 1640 (Gibco Laboratories), 10% horse serum, 5% fetal calf serum (FCS), and penicillin G/streptomycin (100 units/ml, 100 μg/ml respectively, Gibco Laboratories). The cells were disaggregated with 0.03% EDTA and plated in a 96-well microtiter plate at 3,000 cells per well.
as §1, §2, §3

[2] = test system: dorsal root ganglia (DRG) explants; experiment: Stripe assay, DRG explants; format: cell-based, chick; parameters: key: Bands that were completely inhibitory to cell adhesion, migration and/or invasion were evaluated as (−); those allowing limited cell adhesion, migration and/or invasion (+/−); those permissive to cell adhesion, migration and/or invasion as (+); details: for DS-PG Effect on Adhesion, Migration and Invasion: 2 days following plating
Protocol: Primary Explant Cultures. Dorsal root ganglia (DRGs) were obtained from E8-E9 chick embryos. The dissection was carried out in CMF-HBSS. The spinal cord was exposed and DRGs were removed and cleaned from surrounding connective tissue. DRGs were plated in DMEM/F12, 10% fetal calf serum containing 50 ng/ml nerve growth factor (NGF). The DRGs were seeded on laminin (LN, Gibco Laboratories) or poly-L-lysine (PLL, Sigma) coated dishes.
as §1, §2, §3

[3] = 0.25 mg/ml KS/CS-PG + LN stripes
[4] = 0.5 mg/ml KS/CS-PG + LN stripes
[5] = 1.0 mg/ml KS/CS-PG + LN stripes
[6] = 2.7 mg/ml KS/CS-PG + LN stripes
[7] = 0.1 mg/ml DS-PG + 20 μg/ml LN stripes
[8] = 0.2 mg/ml DS-PG + 20 μg/ml LN stripes
[9] = 0.4 mg/ml DS-PG + 20 μg/ml LN stripes
[10] = 0.8 mg/ml DS-PG + 20 μg/ml LN stripes

keratan sulfate/chrondroitin sulfate-proteoglycans [KS/CS-PG]
Effect of KS/CS-PG on Cell Migration [1, 3]: + | Effect of KS/CS-PG on Cell Migration [1, 4]: +/− | Effect of KS/CS-PG on Cell Migration [1, 5]: +/− | Effect of KS/CS-PG on Cell Migration [1, 6]: +/− | Effect of KS/CS-PG on Cell Migration (rat astrocytes (RAST); 0.12 mg/ml KS/CS-PG + LN stripes): + | Effect of KS/CS-PG on Cell Migration (rat astrocytes (RAST); [3]): +/− | Effect of KS/CS-PG on Cell Migration (rat astrocytes (RAST); [4]): +/− | Effect of KS/CS-PG on Cell Migration (rat astrocytes (RAST); [5]): +/− | Effect of KS/CS-PG on Cell Migration (rat astrocytes (RAST); [6]): − | Effect of KS/CS-PG on Cell Migration (rat C6 glioma; [3]): + | Effect of KS/CS-PG on Cell Migration (rat C6 glioma; [4]): + | Effect of KS/CS-PG on Cell Migration (rat C6 glioma; [5]): + | Effect of KS/CS-PG on Cell Migration (rat C6 glioma; [6]): +/− | time by which C6 overcame inhibition (rat C6 glioma; 2.7 mg/ml KS/CS-PG, following plating): ≤ 48 h | Effect of KS/CS-PG on Cell Migration [2, 3]: + | Effect of KS/CS-PG on Cell Migration [2, 4]: − | Effect of KS/CS-PG on Cell Migration [2, 5]: − | Effect of KS/CS-PG on Cell Migration [2, 6]: −

Dermatan sulfate proteoglycan [DS-PG]
DS-PG Effect on Adhesion, Migration and Invasion [1, 7]: +/− | DS-PG Effect on Adhesion, Migration and Invasion [1, 8]: +/− | DS-PG Effect on Adhesion, Migration and Invasion [1, 9]: − | DS-PG Effect on Adhesion, Migration and Invasion [1, 10]: − | DS-PG Effect on Adhesion, Migration and Invasion (rat astrocytes (RAST); [7]): + | DS-PG Effect on Adhesion, Migration and Invasion (rat astrocytes (RAST); [8]): +/− | DS-PG Effect on Adhesion, Migration and Invasion (rat astrocytes (RAST); [9]): +/− | DS-PG Effect on Adhesion, Migration and Invasion (rat astrocytes (RAST); [10]): − | DS-PG Effect on Adhesion, Migration and Invasion (rat C6 glioma; [7]): + | DS-PG Effect on Adhesion, Migration and Invasion (rat C6 glioma; [8]): +/− | DS-PG Effect on Adhesion, Migration and Invasion (rat C6 glioma; [9]): − | DS-PG Effect on Adhesion, Migration and Invasion (rat C6 glioma; [10]): − | stability of clear stripes (inhibition of C6 cells) (rat C6 glioma; 0.8 mg/ml DS-PG, followed up to 6 days): ≥ 4 days | DS-PG Effect on Adhesion, Migration and Invasion [2, 7]: + | DS-PG Effect on Adhesion, Migration and Invasion [2, 8]: +/− | DS-PG Effect on Adhesion, Migration and Invasion [2, 9]: − | DS-PG Effect on Adhesion, Migration and Invasion [2, 10]: −

Source: patent publication US6756362B2, “Methods and compositions based on inhibition of cell invasion and fibrosis by anionic polymers” (priority 1991, dated 2004)
